Experimental data taken from patent publication US20130225683A1, “Compounds and Pharmaceutical Compositions for Uses in Diabetes” (PROMETIC BIOSCIENCES INC., priority 2010, published 2013).
“Also recorded” adds a separate entry of the source.

How the values were obtained:
[1] = test system: diabetic mouse (db/db) model; assay: Diabetic db/db uninephrectomized mouse model, oral Compound I; format: in vivo, male Lepr db (db/db) mice; details: 100 mg/kg per day oral; day 69 to day 128; FIG. 7
Protocol: Male Lepr db (db/db) and age- and sex-matched control mice with the same genetic background (C57BL/6) were used. Animals were randomized using blood sugar measurement (5-hours starved) at week 6 and uninephrectomy (removal of right kidney) was performed. Sham animals (C57BL/6) underwent exposition of the right kidney. Animals that underwent the sham operation were given vehicle (saline) and were used as negative controls. C57BL/6 mice that were uninephrectomized were given vehicle and were used as positive controls. Db/db mice were treated with oral administration of compound I at 100 mg/kg per day for 131 days. Serum glucose was measured every two to four weeks. Oral glucose tolerance test was performed on 16-hours starved mice at day 112. […] Fluorescence was determined and GFR calculated based on a two-compartment model using nonlinear regression curve-fitting software.

[2] = test system: streptozotocin-induced diabetes; assay: Streptozotocin-induced diabetes model in rats, oral Compound I; format: in vivo, male Sprague Dawley rats
Protocol: Diabetes was induced by a single intraperitoneal administration of streptozotocin (65 mg/kg of body weight) in fasted male Sprague Dawley rats, weighing approximately 200-250 g. After 48 hours, rats with plasma glucose more than 10 mmole/L were enrolled and treated with vehicle or compounds. Streptozotocin is well known to induce […] toxicity. […] Ketonuria is a medical condition in which ketone bodies are present in the urine. It is seen in conditions in which the body produces excess ketones as an alternative source of energy. It is seen during starvation or more commonly in diabetes. […] Proteinuria is a medical condition in which an excess of protein is present in the urine. Proteinuria may be a sign of renal kidney damage. Since serum proteins are readily reabsorbed from urine, the presence of excess protein indicates either an insufficiency of absorption or impaired filtration. Diabetics may suffer from damaged nephrons and develop proteinuria. The most common cause of proteinuria is diabetes. […] Despite the available therapies of glycemic and blood pressure control, many patients continue to show progressive renal damage. Therefore, it is extremely important to identify novel interventions to halt the progression of diabetic nephropathy.

[3] = test system: 5/6 nephrectomized (Nx) rat model; assay: 5/6 nephrectomized (Nx) rat model, Compound XIV by gastric gavage once daily; format: in vivo, male Wistar rats; details: Nx rats, p<0.01
From the text: Male 6 week-old Wistar rats were subjected to 5/6 nephrectomy or sham operations. Under fluothane anesthesia, renal ablation was achieved by removing two-thirds of the left kidney followed by a right unilateral nephrectomy 7 days later. Sham rats underwent exposition of the kidneys and removal of the perirenal fat. Animals that underwent the sham operation were given vehicle (saline) and were used as controls. Nx animals were divided in groups receiving the vehicle or Compound XIV. Saline or Compound XIV was given by gastric gavage once daily up to the sacrifice. Serum glucose was measured every three weeks in order to assess the effect of the compound on serum glucose concentration in a renal disease model. Rats were sacrificed at day 126.

SMILES | serum glucose concentration (percent increase vs C57BL/6 sham) [1] | level of increase in blood glucose (delta) ([2]; 100 mg/kg oral, day 2 to day 62 post-streptozotocin, p<0.05, FIG. 1) | urinary protein (proteinuria) ([2]; 100 mg/kg oral, vs STZ+ (diabetic) animals, FIG. 3) | ketone bodies in urine ([2]; streptozotocin-diabetic rats, treated vs untreated, p<0.05, FIG. 2) | urinary proteins concentration ([3]; 10 mg/kg, day 84 and 126, FIG. 6) | serum glucose concentration ([3]; 50 mg/kg, day 42 to day 126, FIG. 5)
CCCCCc1cccc(CC(=O)[O-])c1.[Na+] [Compound I] | significant decrease | decrease significantly | completely abbrogated the presence of urinary protein | significantly reduce the appearance of ketone bodies in the urine; also recorded: significantly (p<0.05) reduced | – | –
CCCCCCCCC(Oc1ccc(C(=O)CCCCCCC)cc1)C(=O)[O-].[Na+] (racemic) [Compound XIV, Sodium (RS)-2-[4-octanoylphenoxy]decanoate] | – | – | – | – | significant (p<0.01) decrease | significant (p<0.01) decrease
